# Results reported in patent US7511146B2, “2-substituted benzimidazole piperidines analogs as selective melanin concentrating hormone receptor antagonists for the treatment of obesity and related disorders” (Schering Corporation, priority 2003, dated 2009).
# Biological target: T1, MCH receptor (Homo sapiens, UniProt Q99705)
# T1 construct: expressed in transfected cells; host or cells: CHO cells
# Assay: MCH Receptor Binding Assay ([125I]-MCH, SPA, membranes from CHO cells expressing the MCH receptor)
# Conditions: [125I]-MCH displacement, CHO cell membranes; read-out: Class (Ki, MCH receptor binding)
# Protocol: MCH Receptor Binding Assay:
# Membranes from CHO cells expressing the MCH receptor were prepared by lysing cells with 5 mM HEPES for 15 min at 4C. Cell lysates were centrifuged ([…], 15 min) and the pellet was resuspended in 5 mM HEPES. For each 96-well plate (Microlite, Dynex Technologies), 1 mg of cell membranes were incubated with 10 mg of wheat germ agglutinin SPA beads (Amersham) for 5 min at 4 C in a volume of 10 ml of binding buffer (25 mM HEPES, 10 mM MGCl2, 10 mM NaCl, 5 mM MnCl2, 0.1% BSA). The membrane/bead mixture was centrifuged (1500×g, 3.5 min), the supernatant was aspirated, and the pellet was resuspended in 10 ml binding buffer. The centrifugation, aspiration and resuspension were then repeated. The membrane/bead mixture (100 μl) was then added to 96-well plates containing 50 μl of 500 pM [^125I]-MCH (NEN) and […] of the appropriate concentration of compound (4× the desired final concentration). Nonspecific binding was determined by including 1 μM MCH in the binding reaction. The binding reaction was incubated at room temperature for 2 h. Plates were then analyzed in a TOPCOUNT microplate scintillation counter (Packard). Data was analyzed and Ki values were determined using GraphPad Prism.
# T1 sequence (Q99705 whole entry): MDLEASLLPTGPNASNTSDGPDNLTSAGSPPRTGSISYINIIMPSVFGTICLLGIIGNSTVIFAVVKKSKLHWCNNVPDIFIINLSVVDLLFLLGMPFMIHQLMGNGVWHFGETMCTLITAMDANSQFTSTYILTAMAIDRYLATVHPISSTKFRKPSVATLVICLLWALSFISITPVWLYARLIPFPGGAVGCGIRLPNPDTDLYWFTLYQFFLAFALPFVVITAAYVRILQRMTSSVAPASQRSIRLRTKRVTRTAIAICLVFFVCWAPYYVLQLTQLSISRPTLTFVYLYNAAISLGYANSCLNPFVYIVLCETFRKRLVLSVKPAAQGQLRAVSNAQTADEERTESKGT
row,Ki [nM],Compound
1,> 100,N#Cc1cccc(-c2ccc(C(OCc3nc4cc(F)c(Cl)cc4[nH]3)C3CCN(CCCCCO)CC3)cc2)c1 (centres unmarked) [Compound 34D]
2,20 to 50,N#Cc1cccc(-c2ccc(C(OCc3nc4cc(F)c(Cl)cc4[nH]3)C3CCN(Cc4ccccc4)CC3)cc2)c1 (centres unmarked) [Compound 34B]
3,20 to 50,N#Cc1cccc(-c2ccc(C(OCc3nc4cc(F)c(Cl)cc4[nH]3)C3CCN(C4CCCC4)CC3)cc2)c1 (centres unmarked) [Compound 34C]
4,50 to 100,N#Cc1cccc(-c2ccc(C(CCc3nc4cc(Cl)c(Cl)cc4[nH]3)C3CCN(Cc4ccccc4)CC3)cc2)c1 (centres unmarked) [Compound 75A]
5,20 to 50,N#Cc1cccc(-c2ccc(C(CCc3nc4cc(Cl)c(F)cc4[nH]3)C3CCN(Cc4ccccc4)CC3)cc2)c1 (centres unmarked) [Compound 75B]
6,< 20,N#Cc1cccc(-c2ccc(C(CNc3nc4cc(F)c(F)cc4[nH]3)C3CCN(Cc4ccccc4)CC3)cc2)c1 (centres unmarked) [Compound 28B]
7,> 100,"N#Cc1cccc(-c2ccc(C3(NCc4nc5cc(Cl)c(Cl)cc5[nH]4)CCN(C4CCCC4)CC3)cc2)c1 [Compound 67A, 4′-{1-Cyclopentyl-4-[(5,6-dichloro-1H-benzoimidazol-2-ylmethyl)-amino]-piperidin-4-yl}-biphenyl-3-carbonitrile]"
8,20 to 50,N#Cc1cccc(-c2ccc(C(CCc3nc4c(Cl)cc(Cl)cc4[nH]3)C3CCN(Cc4ccccc4)CC3)cc2)c1 (centres unmarked) [Compound 75C]
9,< 20,N#Cc1cccc(-c2ccc(C(NCc3nc4cc(Cl)c(F)cc4[nH]3)C3CCN(CC4CC4)CC3)cc2)c1 (centres unmarked) [Compound 17A]
10,< 20,N#Cc1cccc(-c2ccc(C(CNc3nc4cc(Cl)c(Cl)cc4[nH]3)C3CCN(Cc4ccccc4)CC3)cc2)c1 (centres unmarked) [Compound 28A]
11,20 to 50,N#Cc1cccc(-c2ccc(C(NCc3nc4cc(Cl)c(F)cc4[nH]3)C3CCN(C4CCCC4)CC3)cc2)c1 (centres unmarked) [Compound 17B]
12,> 100,N#Cc1cccc(-c2ccc(C3(NCc4nc5ccccc5[nH]4)CCN(C4CCCC4)CC3)cc2)c1 [Compound 67B]
13,20 to 50,N#Cc1cccc(-c2ccc(C(OCc3nc4cc(F)c(Cl)cc4[nH]3)C3CCN(CC4CC4)CC3)cc2)c1 (centres unmarked) [Compound 34A]

# Continued, molecule first:
row,Compound,Ki [nM]
1,N#Cc1cccc(-c2ccc(C3(CCc4nc5cc(Cl)c(F)cc5[nH]4)CCN(CC4CC4)CC3)cc2)c1 [Compound 11C],> 100
2,N#Cc1cccc(-c2ccc(C3(CNc4nc5cc(F)c(F)cc5[nH]4)CCN(C4CCC4)CC3)cc2)c1 [Compound 8C],20 to 50
3,N#Cc1cccc(-c2ccc(C(NCc3nc4cc(Cl)c(Cl)cc4[nH]3)C3CCNCC3)cc2)c1 (centres unmarked) [Compound 16A],< 20
4,N#Cc1cccc(-c2ccc(C3(CNc4nc5cc(F)c(F)cc5[nH]4)CCN(CC4CC4)CC3)cc2)c1 [Compound 8B],20 to 50
5,"CC(C)(C)OC(=O)N1CCC(COc2nc3cc(Cl)c(Cl)cc3[nH]2)(c2ccc(-c3cccc(C#N)c3)cc2)CC1 [Compound 53, 4-(3′-cyano-biphenyl-4-yl)-4-(5,6-dichloro-1H-benzoimidazol-2-yloxymethyl)-piperidine-1-carboxylic acid tert-butyl ester]",> 100
6,"CCNC(=O)N1CCC(COc2nc3cc(Cl)c(Cl)cc3[nH]2)(c2ccc(-c3cccc(C#N)c3)cc2)CC1 [Compound 58, 4-(3′-Cyano-biphenyl-4-yl)-4-(5,6-dichloro-1H-benzoimidazol-2-yloxymethyl)-piperidine-1-carboxylic acid ethylamide]",> 100
7,COC(=O)N1CCC(CNc2nc3cc(F)c(F)cc3[nH]2)(c2ccc(-c3cccc(C#N)c3)cc2)CC1 [Compound 8D],> 100
8,CC(=O)N1CCC(C(OCc2nc3cc(Cl)c(Cl)cc3[nH]2)c2ccc(-c3cccc(C#N)c3)cc2)CC1 (centres unmarked) [Compound 44],> 100
9,CC(C)(C)OC(=O)N1CCC(C(NCc2nc3cc(F)c(Cl)cc3[nH]2)c2ccc(-c3cccc(C#N)c3)cc2)CC1 (centres unmarked) [Compound 15B],20 to 50
10,"N#Cc1cccc(-c2ccc(C3(COc4nc5cc(Cl)c(Cl)cc5[nH]4)CCN(CC4CC4)CC3)cc2)c1 [Compound 57, 4′-[1-Cyclopropylmethyl-4-(5,6-dichloro-1H-benzoimidazol-2-yloxymethyl)-piperidin-4-yl]-biphenyl-3-carbonitrile]",50 to 100
11,"N#Cc1cccc(-c2ccc(C3(COc4nc5cc(Cl)c(Cl)cc5[nH]4)CCNCC3)cc2)c1 [Compound 54, 4′-[4-(5,6-Dichloro-1H-benzoimidazol-2-yloxymethyl)-piperidin-4-yl]-biphenyl-3-carbonitrile]",50 to 100
12,N#Cc1cccc(-c2ccc(C3(CCc4nc5cc(Cl)c(F)cc5[nH]4)CCNCC3)cc2)c1 [Compound 11B],> 100
13,N#Cc1cccc(-c2ccc(C(NCc3nc4cc(Cl)c(F)cc4[nH]3)C3CCNCC3)cc2)c1 (centres unmarked) [Compound 16B],20 to 50
14,N#Cc1cccc(-c2ccc(C(OCc3nc4cc(F)c(Cl)cc4[nH]3)C3CCNCC3)cc2)c1 (centres unmarked) [Compound 33],20 to 50
15,N#Cc1cccc(-c2ccc(C3(CCc4nc5cc(F)c(F)cc5[nH]4)CCN(CC4CC4)CC3)cc2)c1 [Compound 11A],> 100
16,CS(=O)(=O)N1CCC(C(OCc2nc3cc(Cl)c(Cl)cc3[nH]2)c2ccc(-c3cccc(C#N)c3)cc2)CC1 (centres unmarked) [Compound 39],> 100
17,"CS(=O)(=O)N1CCC(COc2nc3cc(Cl)c(Cl)cc3[nH]2)(c2ccc(-c3cccc(C#N)c3)cc2)CC1 [Compound 56, 4′-[4-(5,6-Dichloro-1H-benzoimidazol-2-yloxymethyl)-1-methanesulfonyl-piperidin-4-yl]-biphenyl-3-carbonitrile]",> 100
18,"CC(C)(C)OC(=O)N1CCC(OCc2nc3cc(F)c(F)cc3[nH]2)(c2ccc(-c3cccc(C#N)c3)cc2)CC1 [Compound 63, 4-(3′-Cyano-biphenyl-4-yl)-4-(5,6-difluoro-1H-benzoimidazol-2-ylmethoxy)-piperidine-1-carboxylic acid tert-butyl ester]",> 100
19,N#Cc1cccc(-c2ccc(C3(CNc4nc5cc(F)c(F)cc5[nH]4)CCNCC3)cc2)c1 [Compound 8A],20 to 50
20,N#Cc1cccc(-c2ccc(C(CSc3nc4cc(F)c(Cl)cc4[nH]3)C3CCNCC3)cc2)c1 (centres unmarked) [Compound 48],> 100
21,CC(C)(C)OC(=O)N1CCC(C(NCc2nc3cc(Cl)c(Cl)cc3[nH]2)c2ccc(-c3cccc(C#N)c3)cc2)CC1 (centres unmarked) [Compound 15A],50 to 100

# Same assay, conditions: [125I]-MCH displacement, CHO cell membranes; read-out: Ki value
row,Ki [nM],Compound
1,3,N#Cc1cccc(-c2ccc(C(CNc3nc4cc(Cl)c(Cl)cc4[nH]3)C3CCN(Cc4ccccc4)CC3)cc2)c1 (centres unmarked) [Compound 28A]
